{"source": "patent US20050148589A1", "about": "“Compositions of a cyclooxygenase-2 selective inhibitor and a neurotrophic factor-modulating agent for the treatment of central nervous system mediated disorders” (Pharmacia & Upjohn Company LLC, priority 2003, published 2005)", "origin": "cited, not measured here", "key": {"[1]": {"tested_on": "animal models of cognitive decline, aging, neuroprotection, and spinal cord injury", "details": "pre-clinical studies"}, "[2]": {"tested_on": "brain damage due to neuroexcitotoxins", "details": "in vivo"}, "[3]": {"tested_on": "mRNA levels of various neurotrophic factors, including nerve growth factor (NGF), transforming growth factor (beta), and S100B in the central nervous system", "details": "treatment with Neotrofin"}}}
{"smiles": "O=C(CCn1cnc2c(=O)[nH]cnc21)Nc1ccc(C(=O)[O-])cc1.[K+]", "note": "[Leteprinim potassium]", "values": [{"measurement": "restoration of function in animal models", "setting": "[1]", "value": "restores function in animal models of cognitive decline, aging, neuroprotection, and spinal cord injury"}, {"measurement": "prevention of brain damage due to neuroexcitotoxins", "setting": "[2]", "value": "shown to prevent brain damage due to neuroexcitotoxins"}]}
{"smiles": "O=C(CCn1cnc2c(=O)[nH]cnc21)Nc1ccc(C(=O)[O-])cc1.[K+]", "note": "[Neotrofin]", "values": [{"measurement": "mRNA levels of neurotrophic factors (NGF, TGF beta, S100B) in the central nervous system", "setting": "[3]", "value": "elevated the mRNA levels of various neurotrophic factors"}]}
